Reference: patent publication US10913727B2, “Modulators of the integrated stress pathway” (Calico Life Sciences LLC, priority 2016, dated 2021)

System: HEK293T cells carrying the ATF4 luciferase reporter
Test: ATF4-Luc assay, in vitro model of Vanishing Cell White Matter Disease (VWMD)
Type: cell-based
Conditions: Homo sapiens, HEK-293T, 1 μg/mL tunicamycin, 7 hours, One Glo luminescence
Description: In order to test exemplary compounds of the invention in a cellular context, a stable VWMD cell line was first constructed. The ATF4 reporter was prepared by fusing the human full-length ATF4 5′-UTR (NCBI Accession No. BC022088.2) in front of the firefly luciferase (FLuc) coding sequence lacking the initiator methionine as described in Sidrauski et al (eLife 2013). The construct was used to produce recombinant retroviruses using standard methods and the resulting viral supernatant was used to transduce HEK293T cells, which were then subsequently selected with puromycin to generate a stable cell line.
HEK293T cells carrying the ATF4 luciferase reporter were plated on polylysine coated 384-well plates (Greiner Bio-one) at 30,000 cells per well. Cells were treated the next day with 1 μg/mL tunicamycin and 200 nM of a compound of Formula (I) for 7 hours. Luminescence was measured using One Glo (Promega) as specified by the manufacturer. Cells were maintained in DMEM with L-glutamine supplemented with 10% heat-inactivated FBS (Gibco) and Antibiotic-Antimycotic solution (Gibco).
Table 2 below summarizes the EC50 data obtained using the ATF4-Luc assay for exemplary compounds of the invention.

Compound | EC50
O=C(COc1ccc(Cl)c(F)c1)NC12CCC(NC(=O)c3cnc(C(F)F)cn3)(CC1)[C@H](O)C2 (single isomer, unassigned) [Compound 235] | 50 to 250 nM
O=C(COc1ccc(Cl)c(F)c1)NC12CCC(NC(=O)c3cnc(C(F)F)cn3)(CC1)[C@@H](O)C2 (single isomer, unassigned) [Compound 236] | < 50 nM
Cc1cc(C(=O)NC23CCC(NC(=O)COc4ccc(Cl)c(F)c4)(CC2)[C@H](O)C3)on1 (single isomer, unassigned) [Compound 357] | 250 to 1000 nM
Cc1cc(C(=O)NC23CCC(NC(=O)COc4ccc(Cl)c(F)c4)(CC2)[C@@H](O)C3)on1 (single isomer, unassigned) [Compound 358] | < 50 nM
Cc1cc(C(=O)NC23CCC(NC(=O)COc4ccc(Cl)c(F)c4)(CC2)[C@@H](O)C3)n(C)n1 (single isomer, unassigned) [Compound 485] | < 50 nM
Cc1cc(C(=O)NC23CCC(NC(=O)COc4ccc(Cl)c(F)c4)(CC2)[C@H](O)C3)n(C)n1 (single isomer, unassigned) [Compound 486] | 50 to 250 nM
O=C(COc1ccc(Cl)c(F)c1)NC12CCC(Nc3cnc(C(F)(F)F)cn3)(CC1)CC2 [Compound 100, 2-(4-chloro-3-fluorophenoxy)-N-(4-{[5-(trifluoromethyl)pyrazin-2-yl]amino}bicyclo[2.2.2]octan-1-yl)acetamide] | 250 to 1000 nM
O=C(COc1ccc(Cl)c(Cl)c1)NC12CC(Nc3cnc(C(F)(F)F)cn3)(C1)C2 [Compound 101, 2-(3,4-dichlorophenoxy)-N-(3-{[5-(trifluoromethyl)pyrazin-2-yl]amino}bicyclo-[1.1.1]pentan-1-yl)acetamide] | > 2000 nM
O=C(COc1ccc(Cl)c(F)c1)NC12CC(Nc3cnc(C(F)(F)F)cn3)(C1)C2 [Compound 102, 2-(4-chloro-3-fluorophenoxy)-N-(3-{[5-(trifluoromethyl)pyrazin-2-yl]amino}bicyclo[1.1.1]pentan-1-yl)acetamide] | 1000 to 2000 nM
O=C(COc1ccc(Cl)c(F)c1)NC12CC(Nc3ccc(C(F)(F)F)cn3)(C1)C2 [Compound 103, 2-(4-chloro-3-fluorophenoxy)-N-(3-{[5-(trifluoromethyl)pyridin-2-yl]amino}bicyclo[1.1.1]pentan-1-yl)acetamide] | 1000 to 2000 nM
O=C(COc1ccc(Cl)c(F)c1)NC12CC(Nc3ccc(C(F)(F)F)nc3)(C1)C2 [Compound 104, 2-(4-chloro-3-fluorophenoxy)-N-(3-{[6-(trifluoromethyl)pyridin-3-yl]amino}bicyclo[1.1.1]pentan-1-yl)acetamide] | 250 to 1000 nM
O=C(COc1ccc(Cl)c(F)c1)NC12CC(NC(=O)c3cnc(-c4ccc(Cl)c(F)c4)o3)(C1)C2 [Compound 105, N-{3-[2-(4-chloro-3-fluorophenoxy)acetamido]bicyclo[1.1.1]pentan-1-yl}-2-(4-chloro-3-fluorophenyl)-1,3-oxazole-5-carboxamide] | < 50 nM
O=C(COc1ccc(Cl)c(F)c1)NC12CC(NC(=O)c3ccc(-c4ccc(Cl)c(F)c4)o3)(C1)C2 [Compound 106, N-{3-[2-(4-chloro-3-fluorophenoxy)acetamido]bicyclo[1.1.1]pentan-1-yl}-5-(4-chloro-3-fluorophenyl)furan-2-carboxamide] | < 50 nM
O=C(COc1ccc(Cl)c(F)c1)NC12CC(NC(=O)c3cnc(-c4ccc(C(F)(F)F)nc4)o3)(C1)C2 [Compound 107, N-{3-[2-(4-chloro-3-fluorophenoxy)acetamido]bicyclo[1.1.1]pentan-1-yl}-2-[6-(trifluoromethyl)pyridin-3-yl]-1,3-oxazole-5-carboxamide] | < 50 nM
O=C(COc1ccc(Cl)c(F)c1)NC12CC(NC(=O)c3coc(-c4ccc(Cl)c(F)c4)n3)(C1)C2 [Compound 108, N-{3-[2-(4-chloro-3-fluorophenoxy)acetamido]bicyclo[1.1.1]pentan-1-yl}-2-(4-chloro-3-fluorophenyl)-1,3-oxazole-4-carboxamide] | < 50 nM
Cc1ncc(-c2ncc(C(=O)NC34CC(NC(=O)COc5ccc(Cl)c(F)c5)(C3)C4)o2)cn1 [Compound 109, N-{3-[2-(4-chloro-3-fluorophenoxy)acetamido]bicyclo[1.1.1]pentan-1-yl}-2-(2-methylpyrimidin-5-yl)-1,3-oxazole-5-carboxamide] | 250 to 1000 nM
O=C(COc1ccc(Cl)c(Cl)c1)NC12CCC(NC(=O)c3cnc(-c4ccc(Cl)c(F)c4)o3)(C1)C2 [Compound 110, 2-(4-chloro-3-fluorophenyl)-N-{4-[2-(3,4-dichlorophenoxy)acetamido]bicyclo-[2.1.1]hexan-1-yl}-1,3-oxazole-5-carboxamide] | 50 to 250 nM
Cc1cc(C(=O)NC23CCC(NC(=O)COc4ccc(Cl)c(Cl)c4)(C2)C3)nn1-c1ccc(Cl)cc1 [Compound 111, 1-(4-chlorophenyl)-N-{4-[2-(3,4-dichlorophenoxy)acetamido]bicyclo[2.1.1]-hexan-1-yl}5-methyl-1H-pyrazole-3-carboxamide] | > 2000 nM
Cc1cc(C(=O)NC23CC(NC(=O)COc4ccc(Cl)c(F)c4)(C2)C3)nn1-c1ccc(Cl)cc1 [Compound 112, N-{3-[2-(4-chloro-3-fluorophenoxy)acetamido]bicyclo[1.1.1]pentan-1-yl}-1-(4-chlorophenyl)-5-methyl-1H-pyrazole-3-carboxamide] | 250 to 1000 nM
O=C(COc1ccc(Cl)c(F)c1)NC12CC(NC(=O)c3cc(-c4ccc(Cl)cc4)on3)(C1)C2 [Compound 113, N-{3-[2-(4-chloro-3-fluorophenoxy)acetamido]bicyclo[1.1.1]pentan-1-yl}-5-(4-chlorophenyl)-1,2-oxazole-3-carboxamide] | 50 to 250 nM
Cc1cnc(C(=O)NC23CC(NC(=O)COc4ccc(Cl)c(F)c4)(C2)C3)cn1 [Compound 114, N-{3-[2-(4-chloro-3-fluorophenoxy)acetamido]bicyclo[1.1.1]pentan-1-yl}-5-methylpyrazine-2-carboxamide] | 50 to 250 nM
O=C(COc1ccc(Cl)c(F)c1)NC12CC(NC(=O)c3cnc(C(F)(F)F)cn3)(C1)C2 [Compound 115, N-{3-[2-(4-chloro-3-fluorophenoxy)acetamido]bicyclo[1.1.1]pentan-1-yl}-5-(trifluoromethyl)pyrazine-2-carboxamide] | 1000 to 2000 nM
COc1cc(OC)nc(C(=O)NC23CC(NC(=O)COc4ccc(Cl)c(F)c4)(C2)C3)n1 [Compound 116, N-{3-[2-(4-chloro-3-fluorophenoxy)acetamido]bicyclo[1.1.1]pentan-1-yl}-4,6-dimethoxypyrimidine-2-carboxamide] | > 2000 nM
O=C(COc1ccc(Cl)c(F)c1)NC12CC(NC(=O)c3ccc(OC(F)(F)F)cn3)(C1)C2 [Compound 117, N-{3-[2-(4-chloro-3-fluorophenoxy)acetamido]bicyclo[1.1.1]pentan-1-yl}-5-(trifluoromethoxy)pyridine-2-carboxamide] | < 50 nM
COc1ncnc(OC)c1C(=O)NC12CC(NC(=O)COc3ccc(Cl)c(F)c3)(C1)C2 [Compound 118, N-{3-[2-(4-chloro-3-fluorophenoxy)acetamido]bicyclo[1.1.1]pentan-1-yl}-4,6-dimethoxypyrimidine-5-carboxamide] | > 2000 nM
O=C(COc1ccc(Cl)c(F)c1)NC12CC(NC(=O)c3cc4ccccn4n3)(C1)C2 [Compound 119, N-{3-[2-(4-chloro-3-fluorophenoxy)acetamido]bicyclo[1.1.1]pentan-1-yl}pyrazolo[1,5-a]pyridine-2-carboxamide] | 250 to 1000 nM
